The subject of the assay is B6C3F1 mice, B16 melanoma ip, median survival T/C. The assay is described as follows: NCI In Vivo Anticancer Drug Screen. Data for tumor model B16 Melanoma (intraperitoneal) in B6C3F1 mice. Conditions: endpoint: median survival time, higher = longer survival. The method in brief:
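Values are T/C ratios: the measurement in treated animals divided by that in vehicle-treated controls, using survival or tumor size in mice carrying transplantable tumors.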

Setting [1] is: dose: 50.0 mg/kg/injection, schedule: Q01DX009 (ip), vehicle: saline with Tween-80.
Where [2] appears, read: dose: 100.0 mg/kg/injection, schedule: Q01DX009 (ip), vehicle: saline with Tween-80.
Setting [3] is: dose: 200.0 mg/kg/injection, schedule: Q01DX009 (ip), vehicle: saline with Tween-80.
The mark [4] stands for this setting: dose: 6.25 mg/kg/injection, schedule: Q01DX009 (ip), vehicle: saline with Tween-80.
The mark [5] stands for this setting: dose: 12.5 mg/kg/injection, schedule: Q01DX009 (ip), vehicle: Klucel (hydroxypropylcellulose) (HPC).
Setting [6] is: dose: 12.5 mg/kg/injection, schedule: Q01DX009 (ip), vehicle: saline with Tween-80.
The mark [7] stands for this setting: dose: 12.5 mg/kg/injection, schedule: Q01DX009 (ip), vehicle: saline.
Where [8] appears, read: dose: 25.0 mg/kg/injection, schedule: Q01DX009 (ip), vehicle: Klucel (hydroxypropylcellulose) (HPC).
Setting [9] is: dose: 25.0 mg/kg/injection, schedule: Q01DX009 (ip), vehicle: saline with Tween-80.
Setting [10] is: dose: 25.0 mg/kg/injection, schedule: Q01DX009 (ip), vehicle: saline.
Setting [11] is: dose: 50.0 mg/kg/injection, schedule: Q01DX009 (ip), vehicle: Klucel (hydroxypropylcellulose) (HPC).
Where [12] appears, read: dose: 100.0 mg/kg/injection, schedule: Q01DX009 (ip), vehicle: Klucel (hydroxypropylcellulose) (HPC).
Where [13] appears, read: dose: 200.0 mg/kg/injection, schedule: Q01DX009 (ip), vehicle: Klucel (hydroxypropylcellulose) (HPC).
[14] abbreviates: dose: 50.0 mg/kg/injection, schedule: Q01DX009 (ip), vehicle: saline.
The mark [15] stands for this setting: dose: 100.0 mg/kg/injection, schedule: Q01DX009 (ip), vehicle: saline.

Where “and” joins values, the source holds several entries; their conditions need not be identical. Equal entries are not always repeated. Inconclusive results and toxic doses are left out.

`Cc1ccccc1N=C(c1ccccc1)C1C(=O)c2ccccc2C1=O`: the T/C by setting is: (dose: 50.0 mg/kg/injection, schedule: Q01DX009 (ip), vehicle: DMSO) 101 % of control; (dose: 100.0 mg/kg/injection, schedule: Q01DX009 (ip), vehicle: DMSO) 106 % of control; (dose: 200.0 mg/kg/injection, schedule: Q01DX009 (ip), vehicle: DMSO) 116 % of control; (dose: 400.0 mg/kg/injection, schedule: Q01DX009 (ip), vehicle: DMSO) 108 % of control; (dose: 800.0 mg/kg/injection, schedule: Q01DX009 (ip), vehicle: DMSO) 101 % of control.
Regarding `CC(=O)Nc1ccc(N=Nc2c(O)c(S(=O)(=O)O)cc3cc(S(=O)(=O)O)ccc23)cc1`, the T/C is 111 % of control under setting [1], 100 % of control under setting [2] and 98 % of control under setting [3].
Regarding `O=C1c2c(O)cccc2-c2nn(CCNCCO)c3ccc(NCCNCCO)c1c23`, the T/C was 250 % of control (dose: 2.75 mg/kg/injection, schedule: Q01DX009 (ip), vehicle: water) and 158 % of control (dose: 5.5 mg/kg/injection, schedule: Q01DX009 (ip), vehicle: water).
Regarding `CCCCS(=N)(=O)CC[C@H](N)C(=O)O` (stereo not given in full), the T/C reads like this: (dose: 445.0 mg/kg/injection, schedule: Q04HX012 (ip), vehicle: water) 104 % of control; (dose: 890.0 mg/kg/injection, schedule: Q04HX012 (ip), vehicle: water) 107 % of control.
Take `C=C(C)[C@@H]1CCc2c(O)c(O)c(=O)cc(C)c2C1`: the T/C runs as follows: (dose: 3.12 mg/kg/injection, schedule: Q01DX009 (ip), vehicle: Klucel (hydroxypropylcellulose) (HPC)) 100 % of control; (dose: 3.12 mg/kg/injection, schedule: Q01DX009 (ip), vehicle: saline with Tween-80) 100 % of control; (dose: 6.25 mg/kg/injection, schedule: Q01DX009 (ip), vehicle: Klucel (hydroxypropylcellulose) (HPC)) 99 % of control; under setting [4], 100 % of control; under setting [5], 104 % of control; under setting [6], 95 % of control. Moreover, the T/C is 100 % of control under setting [7]; 112 % of control under setting [8]; 102 % of control under setting [9]; 115 % of control under setting [10]; 99 % of control under setting [11]; 110 % of control under setting [1]. Also, the T/C under setting [12] is 102 % of control.
Turning to `CCO/C=C1\SC(=S)N(c2ccccc2C)C1=O`, the T/C under setting [6] was 111 % of control; the T/C under setting [9] is 111 % of control; the T/C under setting [1] is 108 % of control and 105 % of control; the T/C under setting [2] is 109 % of control and 116 % of control; the T/C under setting [3] is 112 % of control and 116 % of control.
`C[Si](C)(C)OSc1ccccc1[N+](=O)[O-]`: the T/C was 108 % of control under setting [5]; 110 % of control under setting [8]; 113 % of control under setting [11]; 112 % of control under setting [12]; 103 % of control under setting [13]; 89 % of control (dose: 400.0 mg/kg/injection, schedule: Q01DX009 (ip), vehicle: Klucel (hydroxypropylcellulose) (HPC)).
`[Cl][Pt+2][Cl].[NH-]c1cc(Cl)c(Cl)c(Cl)c1[NH-]`: the T/C reads like this: (dose: 40.0 mg/kg/injection, schedule: Q01DX009 (ip), vehicle: distilled water + Tween-80) 109 % of control; (dose: 80.0 mg/kg/injection, schedule: Q01DX009 (ip), vehicle: distilled water + Tween-80) 102 % of control.
Regarding `NC1C(O)C(O)C(Nc2ncnc3nc[nH]c23)OC1C(O)CO` (stereo not given), the T/C is, setting by setting: (dose: 10.0 mg/kg/injection, schedule: Q01DX009 (ip), vehicle: saline) 99 % of control; (dose: 20.0 mg/kg/injection, schedule: Q01DX009 (ip), vehicle: saline) 96 % of control; (dose: 40.0 mg/kg/injection, schedule: Q01DX009 (ip), vehicle: saline) 94 % of control; (dose: 80.0 mg/kg/injection, schedule: Q01DX009 (ip), vehicle: saline) 106 % of control.
As for `O=[N+]([O-])c1ccc2c3c(ccc([N+](=O)[O-])c13)CC2`, the T/C was 89 % of control under setting [8]; 89 % of control under setting [11]; 91 % of control and 95 % of control under setting [12].
As to `CC(C)(C)OC(=O)NC(Cc1ccc(O)cc1)C(=O)ON1C(=O)CCC1=O` (stereo not given), the T/C runs as follows: under setting [12], 101 % of control; under setting [13], 96 % of control.
`O=C(O)CSC(CC(=O)O)C(=O)O` (stereo not given): the T/C is, setting by setting: under setting [10], 94 % of control; under setting [14], 89 % of control; under setting [15], 94 % of control.
On to `CC(C)(C)OC(=O)NCC(=O)ON1C(=O)CCC1=O`, for which the T/C runs as follows: under setting [1], 100 % of control; under setting [2], 91 % of control.
`O=C1CSC(c2cccs2)N1c1nncs1` (stereo not given): the T/C is, setting by setting: under setting [8], 102 % of control; under setting [11], 92 % of control; under setting [12], 92 % of control; under setting [13], 97 % of control.
Regarding `O=[N+]([O-])O.O=[N+]([O-])O.[NH-]C1CCCCC1[NH-].[Pt+2]` (stereo not given), the T/C by setting is: (dose: 0.25 mg/kg/injection, schedule: Q01DX009 (ip), vehicle: other) 123 % of control; (dose: 1.0 mg/kg/injection, schedule: Q01DX009 (ip), vehicle: other) 163 % of control.
In the case of `CS(=O)(=O)CS(=O)(=O)OCCF`, the T/C was 107 % of control (dose: 3.12 mg/kg/injection, schedule: Q01DX009 (ip), vehicle: saline); 100 % of control (dose: 5.4 mg/kg/injection, schedule: Q01DX009 (ip), vehicle: saline); 116 % of control (dose: 6.25 mg/kg/injection, schedule: Q01DX009 (ip), vehicle: saline); 110 % of control and 100 % of control (dose: 9.0 mg/kg/injection, schedule: Q01DX009 (ip), vehicle: saline); 113 % of control and 119 % of control (dose: 15.0 mg/kg/injection, schedule: Q01DX009 (ip), vehicle: saline); 121 % of control and 216 % of control (dose: 41.67 mg/kg/injection, schedule: Q01DX009 (ip), vehicle: saline).
Consider `C[n+]1c(-c2cccc(OCCOCCOc3cccc(-c4c5cc(N)ccc5c5ccc(N)cc5[n+]4C)c3)c2)c2cc(N)ccc2c2ccc(N)cc21`, for which the T/C is 99 % of control (dose: 0.25 mg/kg/injection, schedule: Q01DX009 (ip), vehicle: distilled water + Tween-80); 107 % of control (dose: 0.5 mg/kg/injection, schedule: Q01DX009 (ip), vehicle: distilled water + Tween-80); 117 % of control (dose: 1.0 mg/kg/injection, schedule: Q01DX009 (ip), vehicle: distilled water + Tween-80).
Take `CC(=O)NCCCCCCNC(C)=O`: the T/C runs as follows: under setting [10], 108 % of control; under setting [14], 97 % of control; under setting [15], 106 % of control; (dose: 200.0 mg/kg/injection, schedule: Q01DX009 (ip), vehicle: saline) 106 % of control; (dose: 800.0 mg/kg/injection, schedule: Q01DX009 (ip), vehicle: saline) 179 % of control.
Take `N#Cc1c(N)[nH]c2ccc(Sc3ccccc3)cc12`: the T/C was 110 % of control under setting [4], 94 % of control under setting [6], 99 % of control under setting [9] and 107 % of control under setting [1].
For the compound `CC[C@@]1(O)C(=O)OCc2c1cc1n(c2=O)Cc2cc3ccccc3nc2-1`, the T/C reads like this: (dose: 0.1 mg/kg/injection, schedule: Q01DX009 (ip), vehicle: other) 108 % of control; (dose: 1.5 mg/kg/injection, schedule: Q01DX009 (ip), vehicle: saline with Tween-80) 174 % of control; (dose: 3.0 mg/kg/injection, schedule: Q01DX009 (ip), vehicle: saline with Tween-80) 189 % of control.
With `O=CC(S)CO` (stereo not given), the T/C by setting is: under setting [7], 107 % of control; under setting [10], 111 % of control; under setting [14], 123 % of control.
Take `O=NNc1ccc(Br)cn1`: the T/C reads like this: (dose: 1.56 mg/kg/injection, schedule: Q01DX009 (ip), vehicle: water) 110 % of control and 112 % of control; (dose: 3.12 mg/kg/injection, schedule: Q01DX009 (ip), vehicle: water) 119 % of control and 124 % of control; (dose: 12.5 mg/kg/injection, schedule: Q01DX009 (ip), vehicle: water) 158 % of control and 170 % of control.

The values above are taken from PubChem BioAssay AID200 (DTP/NCI, 2004).
